Measurements from PubChem BioAssay AID2060492 (Molecular Pharmacology Branch, DTP, NCI, 2025).

System: 695427-040-R-J1-PDC complex spheroids, viability percent T/C
Assay: Anticancer human tumor 695427-040-R-J1-PDC patient-derived colon adenocarcinoma cell line growth inhibition [GQUAD]
Conditions: for IC50: curve of first compound; for viability, T/C: stronger effect = lower value
Text: DNA G-quadruplex Stabilizer Agents in Combinations in Complex Spheroids
A high-throughput screen of multi-cell type tumor spheroids was designed to identify active combinations of DNA G-quadruplex stabilizer agents and targeted small molecules. Complex spheroids include a stromal component modeled by human endothelial cells (HUVEC) and fibroblasts modeled by human mesenchymal stem cells (MSCs). The concentration ranges selected for each drug and investigational agent were based upon clinically achievable concentrations if the clinical Cmax of the agent was known.
Compounds. The drugs and investigational agents: pidnarulex (CX-5461; NSC782164), APTO-253 (NSC789042), BRACO-19 (NSC847499), peposertib (NSC802822), ceralasertib (NSC780249), elimusertib (NSC800525), camonsertib (NSC841442), AZD-1390 (NSC803789), olaparib (NSC753686), talazoparib (NSC767125), ART-558 (NSC835418), sotorasib (NSC818433), MRTX-1133 (NSC836407), SN-38 (NSC673596), topotecan (NSC609699), etoposide (NSC141540), doxorubicin (NSC123127), gemcitabine (NSC613327), 5-fluorouracil (NSC19893), paclitaxel (NSC125973), vemurafenib (NSC761431), panobinostat (NSC761190), R-306465 (JNJ-16241199; NSC773264), adavosertib (NSC754352), TP-3654 (NSC805149), carboplatin (NSC241240), KSQ-4279 (NSC840948), and staurosporine (NSC755774) were obtained from the National Cancer Institute (NCI) Developmental Therapeutics Program Chemical Repository (34). The FDA-approved anticancer drug set is available from the NCI Developmental Therapeutics Program. […] The stock solutions were prepared in dimethyl sulfoxide (DMSO, Sigma-Aldrich, St. Louis, MO, cat. D2650) at 800-fold the tested concentration and stored at -70 degrees C prior to their use. All drugs and investigational agents were tested over a range starting from a high concentration at or near the clinical Cmax and decreasing in half-log increments. If the clinical Cmax for an agent had not been determined, the highest concentration tested was 10 microM.
2.3 Cell Culture. All cells were maintained in an incubator at 37 degrees C and 5% CO2 with 95% humidity. The PDC lines were cultured according to standard operating procedures established by the NCI PDMR. All PDCs were thawed and cultured in Matrigel-coated flasks prepared with a working solution of 1X Ham's F-12 nutrient mix, without supplementation (Invitrogen, cat. 11765054), 100 U/mL penicillin-streptomycin (Invitrogen, cat. 15140122), and 2.5% Matrigel (Corning Inc., cat. 354248) for the first three passages. The 857933-349-R-J2-PDC line was cultured in 6C/Colon 1B media, which includes advanced DMEM/F-12 (Thermo Fisher Scientific, cat. 12634028), 10 mM HEPES (Thermo Fisher Scientific, cat. 15630080), 1X GlutaMAX supplement (Thermo Fisher Scientific, cat. 35050061), 0.1 mg/mL primocin (InvivoGen, cat. ant-pm-2), 10% defined fetal bovine serum, heat inactivated (HyClone Laboratories Inc., cat. SH30070.03HI), 50% L-WRN conditioned media (ATCC, cat. CRL-3276), 1.25 mM N-Acetyl-L-cysteine (Sigma-Aldrich, cat. A9165), 10 mM nicotinamide (Sigma-Aldrich, cat. N0636), 1X B-27 supplement (Thermo Fisher Scientific, cat. 17504044), 1X N-2 supplement (Thermo Fisher Scientific, cat. 17502048), 10 microM Y-27632 dihydrochloride (Tocris Bioscience, cat. 1254), and 50 ng/mL human EGF recombinant protein (Thermo Fisher Scientific, cat. PHG0311). The 485176-168-R4-J1-PDC line was cultured in Panc media, which includes all 6C/Colon 1B media components plus 100 ng/mL human FGF-10 (Thermo Fisher Scientific, cat. 100-26), 500 nM SB-431542 (Selleckchem, cat. S1067), and gastrin (Tocris, cat. 3006).
[…]

[1] = second compound 0.0316 µM, first compound 0.0316 µM
[2] = second compound 0.0316 µM, first compound 0.1 µM
[3] = second compound 0.0316 µM, first compound 0.316 µM
[4] = second compound 0.0316 µM, first compound 1 µM
[5] = second compound 0.0316 µM, first compound 3.16 µM
[6] = second compound 0.0316 µM, first compound 10 µM
[7] = second compound 0.1 µM, first compound 0.0316 µM
[8] = second compound 0.1 µM, first compound 0.1 µM
[9] = second compound 0.1 µM, first compound 0.316 µM
[10] = second compound 0.1 µM, first compound 1 µM
[11] = second compound 0.1 µM, first compound 3.16 µM
[12] = second compound 0.1 µM, first compound 10 µM
[13] = second compound 0.316 µM, first compound 0.0316 µM
[14] = second compound 0.316 µM, first compound 0.1 µM
[15] = second compound 0.316 µM, first compound 0.316 µM
[16] = second compound 0.316 µM, first compound 1 µM
[17] = second compound 0.316 µM, first compound 3.16 µM
[18] = second compound 0.316 µM, first compound 10 µM
[19] = second compound 1 µM, first compound 0.0316 µM
[20] = second compound 1 µM, first compound 0.1 µM
[21] = second compound 1 µM, first compound 0.316 µM
[22] = second compound 1 µM, first compound 1 µM
[23] = second compound 1 µM, first compound 3.16 µM
[24] = second compound 1 µM, first compound 10 µM
[25] = second compound 3.16 µM, first compound 0.0316 µM
[26] = second compound 3.16 µM, first compound 0.1 µM
[27] = second compound 3.16 µM, first compound 0.316 µM
[28] = second compound 3.16 µM, first compound 1 µM
[29] = second compound 3.16 µM, first compound 3.16 µM
[30] = second compound 3.16 µM, first compound 10 µM
[31] = second compound 10 µM, first compound 0.0316 µM
[32] = second compound 10 µM, first compound 0.1 µM
[33] = second compound 10 µM, first compound 0.316 µM
[34] = second compound 10 µM, first compound 1 µM
[35] = second compound 10 µM, first compound 3.16 µM
[36] = second compound 10 µM, first compound 10 µM
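Note: spheroids exposed to compounds for seven days before readout.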

O=c1[nH]cc(F)c(=O)[nH]1 + CN(C)c1ccc(Nc2c3ccc(NC(=O)CCN4CCCC4)cc3nc3cc(NC(=O)CCN4CCCC4)ccc23)cc1
IC50 (second compound 0.0316 µM): > 10 µM | IC50 (second compound 0.1 µM): > 10 µM | IC50 (second compound 0.316 µM): > 10 µM | IC50 (second compound 1 µM): > 10 µM | IC50 (second compound 3.16 µM): > 10 µM | IC50 (second compound 10 µM): > 10 µM | viability, T/C [1]: 101% | viability, T/C [2]: 90.5% | viability, T/C [3]: 90.5% | viability, T/C [4]: 92.6% | viability, T/C [5]: 95.5% | viability, T/C [6]: 97.5% | viability, T/C [7]: 103% | viability, T/C [8]: 90.1% | viability, T/C [9]: 94.9% | viability, T/C [10]: 83.8% | viability, T/C [11]: 99.8% | viability, T/C [12]: 91.5% | viability, T/C [13]: 106% | viability, T/C [14]: 100% | viability, T/C [15]: 99.7% | viability, T/C [16]: 92.8% | viability, T/C [17]: 94.7% | viability, T/C [18]: 94.5% | viability, T/C [19]: 103% | viability, T/C [20]: 96.9% | viability, T/C [21]: 98% | viability, T/C [22]: 96.9% | viability, T/C [23]: 97.7% | viability, T/C [24]: 92.5% | viability, T/C [25]: 92.1% | viability, T/C [26]: 100% | viability, T/C [27]: 90.3% | viability, T/C [28]: 88.3% | viability, T/C [29]: 90.5% | viability, T/C [30]: 91% | viability, T/C [31]: 87.8% | viability, T/C [32]: 92.6% | viability, T/C [33]: 78% | viability, T/C [34]: 82.4% | viability, T/C [35]: 85.7% | viability, T/C [36]: 83.4%

CC1COCCN1c1cc(C2(S(C)(=N)=O)CC2)nc(-c2ccnc3[nH]ccc23)n1 (centres undefined) + Cc1[nH]c2ccc(F)cc2c1-c1nc2c3cccnc3c3ncccc3c2[nH]1
IC50 (second compound 0.0316 µM): > 10 µM | IC50 (second compound 0.1 µM): > 10 µM | IC50 (second compound 0.316 µM): > 10 µM | IC50 (second compound 1 µM): > 10 µM | IC50 (second compound 3.16 µM): > 10 µM | IC50 (second compound 10 µM): > 10 µM | viability, T/C [1]: 99.3% | viability, T/C [2]: 101% | viability, T/C [3]: 87.6% | viability, T/C [4]: 73.9% | viability, T/C [5]: 76.9% | viability, T/C [6]: 57.4% | viability, T/C [7]: 103% | viability, T/C [8]: 72.5% | viability, T/C [9]: 102% | viability, T/C [10]: 89.3% | viability, T/C [11]: 73.2% | viability, T/C [12]: 62.2% | viability, T/C [13]: 87.9% | viability, T/C [14]: 80.1% | viability, T/C [15]: 84.8% | viability, T/C [16]: 84.9% | viability, T/C [17]: 74.6% | viability, T/C [18]: 61.5% | viability, T/C [19]: 70.5% | viability, T/C [20]: 71.7% | viability, T/C [21]: 70.3% | viability, T/C [22]: 97% | viability, T/C [23]: 83% | viability, T/C [24]: 65.8% | viability, T/C [25]: 61.9% | viability, T/C [26]: 84% | viability, T/C [27]: 75.9% | viability, T/C [28]: 81.8% | viability, T/C [29]: 71.9% | viability, T/C [30]: 61.2% | viability, T/C [31]: 66% | viability, T/C [32]: 67.9% | viability, T/C [33]: 80.8% | viability, T/C [34]: 82% | viability, T/C [35]: 67.6% | viability, T/C [36]: 54.3%
